According to patent publication US20020071872A1, “Laxative composition” (priority 1999, published 2002):

Legend:
small bowel transit = assay: Small bowel (small intestinal) transit of a charcoal marker in rats; type: in vivo, rat
Description: A study was performed to characterize and compare the effects of bisacodyl, simethicone and combinations of bisacodyl and simethicone on small bowel transit time. Small intestinal transit time was studied as a surrogate for […] in the rat. Leng-Peschlow, E., “Effect of Sennosides A+B and Bisacodyl on rat large intestine”, Pharmacology, vol. 38 (1989), 310-318 (1989). […] The prokinetic efficacy of bisacodyl in the small intestine may differ from that observed in the large intestine by Leng-Psechlow. For the small intestinal transit model a sub-therapeutic dose of 25mg/kg bisacodyl was chosen. Rats were dosed with a suspension of powdered charcoal, which served as a non-absorbable marker. The rats were also dosed with bisacodyl USP 23 (ZetaPharm, Inc.) and simethicone supplied as […]® drops and activated charcoal (Sigma Chemical). Six treatments were compared a control; simethicone 15 mg/kg; bisacodyl 25 mg/kg; and bisacodyl 25 mg/kg and simethicone at 5, 10 or 15 mg/kilogram. Dosing preparations of charcoal suspension (10 weight percent) were made freshly each day by adding dry powder to 0.5 percent methylcellulose in water and stirring. Dosing preparations were made each day by adding the appropriate quantity of bisacodyl and/or simethicone drops to the charcoal suspension. All treatments were administered orally, using the dose volume of 10 milliliters per kilogram. Sixty minutes after dosing, the rats were sacrificed and small bowel transit rate was determined by identifying the charcoal marker and measuring its distance from the pylorus.

fecal output = settings: 10-100 mg/kg bisacodyl given orally, rat; cited from earlier work
large intestinal transit = settings: 50 mg/kg bisacodyl given orally, rat; cited from earlier work

With CC(=O)Oc1ccc(C(c2ccc(OC(C)=O)cc2)c2ccccn2)cc1 [Bisacodyl, bisacodyl] the Mean % traveled (small bowel transit; bisacodyl 25 mg/kg oral, rat, charcoal marker, 60 min after dosing) was 80.7%, the “% Increase” value (small bowel transit; compared to vehicle control, bisacodyl 25 mg/kg oral, rat) was 1% and the “small bowel transit compared with control” value (small bowel transit; rats treated with simethicone alone or bisacodyl alone) was “not different from control”. For the same compound, the fecal output (fecal output) was “increased fecal output” and the large intestinal transit (large intestinal transit) was “significantly stimulated”.
